Test results as given in patent publication US8399429B2, “Uracyl cyclopropyl nucleotides” (Janssen Products, LP, priority 2008, dated 2013).

Legend:
[1] = test system: HCV replicon (Huh-7 luc/neo, NS3-NS5B of HCV type 1b); experiment: HCV replicon assay (Huh-Luc, luciferase readout); format: cell-based; details: Huh-Luc cells, HCV type 1b replicon, three days incubation, luciferase activity
From the text: The compounds of formula I were examined for activity in the inhibition of HCV RNA replication in a cellular assay aimed at identifying compounds that inhibit a HCV functional cellular replicating cell line, also known as HCV replicons. The cellular assay was based on a bicistronic expression construct, as described by Lohmann et al. (1999), Science vol. 285 pp. 110-113 with modifications described by Krieger et al. (2001), Journal of Virology 75: 4614-4624, in a multi-target screening strategy.
The assay utilized the stably transfected cell line Huh-7 luc/neo (hereafter referred to as Huh-Luc). This cell line harbors an RNA encoding a bicistronic expression construct comprising the wild type NS3-NS5B regions of HCV type 1b translated from an Internal Ribosome Entry Site (IRES) from encephalomyocarditis virus (EMCV), preceded by a reporter portion (FfL-luciferase), and a selectable marker portion (neoR, neomycine phosphotransferase). The construct is bordered by 5′ and 3′ NTRs (non-translated regions) from HCV type 1b. Continued culture of the replicon cells in the presence of G418 (neo^R) is dependent on the replication of the HCV RNA. The stably transfected replicon cells that express HCV RNA, which replicates autonomously and to high levels, encoding inter alia luciferase, were used for screening the antiviral compounds.
The replicon cells were plated in 384 well plates in the presence of the test and control compounds which were added in various concentrations. Following an incubation of three days, HCV replication was measured by assaying luciferase activity (using standard luciferase assay substrates and reagents and a Perkin Elmer ViewLux™ ultraHTS microplate imager). Replicon cells in the control cultures have high luciferase expression in the absence of any inhibitor. The inhibitory activity of the compound on luciferase activity was monitored on the Huh-Luc cells, enabling a dose-response curve for each test compound. EC50 values were then calculated, which value represents the amount of the compound required to decrease the level of detected luciferase activity by 50%, or more specifically, the ability of the genetically linked HCV replicon RNA to replicate.

Huh7-CMV-Luc cells = experiment: Cellular toxicity in Huh7-CMV-Luc replicon assay; format: cell-based; details: three days incubation, Luc activity, read-out: CC50 (μM) (Huh-7)
Protocol: (§1) Cellular toxicity was determined in the Huh7-CMV-Luc replicon assay. Replicon cells (2500 cells/well), stably transformed with a luciferase reporter gene under control of the cytomegalovirus (CMV) constitutive promotor, were cultured in the presence or absence of test compound concentrations. After three days of incubation at 37° C. in a humidified 5% CO2 atmosphere, cell proliferation was quantified by measuring the Luc activity, and expressed as CC50 values (cytotoxicity, 50% inhibitory concentration of cell growth). Tests were performed in 384-well plates.

[2] = test system: wild type human immunodeficiency virus (HIV) strain IIIB; experiment: HIV assay in MT4 LTR-EGFP cells; format: cell-based, HIV-1; details: three days after infection
Protocol: (§2) Compounds of the invention were tested for their potency against wild type human immunodeficiency virus (HIV). Antiviral activity was evaluated using a cellular assay performed according to the following procedure. The human T-cell line MT4 was engineered with Green Fluorescent Protein (GFP) and a HIV-specific promoter, HIV-1 long terminal repeat (LTR). This cell line, designated MT4 LTR-EGFP, can be used for the in vitro evaluation of anti-HIV activity of investigational compounds. In HIV-1 infected cells, the Tat protein is produced, which upregulates the LTR promotor and eventually leads to stimulation of the GFP reporter production, allowing to measure ongoing HIV-infection fluorometrically. Effective concentration values such as 50% effective concentration (EC50) can be determined and are usually expressed in μM. An EC50 value is defined as the concentration of test compound that reduces the fluorescence of HIV-infected cells by 50%. Monitoring of HIV-1 infection was done using a scanning microscope. Image analysis allows very sensitive detection of viral infection. Measurements were done before cell necrosis, which usually takes place about five days after infection, in particular measurements were performed three days after infection. The column IIIB in the table list the EC50 values against the wild type strain IIIB.

MT-4 cells = experiment: Cellular toxicity in the HIV cell-line (MT-4); format: cell-based, human
Protocol: as §2
(§3) Also the HIV activity is given (EC50 HIV (μM)) and the cellular toxicity in the HIV cell-line (CC50 (μM) (MT-4)).

[3] = Cellular toxicity in Huh7-CMV-Luc replicon assay; format: cell-based; details: human, Huh7-CMV-Luc cells, three days incubation, Luc activity; read-out: CC50 (μM) (Huh-7)
Protocol: as §1

[4] = Cellular toxicity in the HIV cell-line (MT-4); format: cell-based, human; details: human
Protocol: as §2, §3

[5] = Human immunodeficiency virus 1, IIIB, 72 h

## C[C@H](NP(=O)(OC[C@H]1O[C@@H](n2ccc(=O)[nH]c2=O)C2(CC2)[C@@H]1O)Oc1ccc(Cl)cc1)C(=O)OCc1ccccc1 (single isomer, unassigned) [Compound 7b]
[1]
  EC50: 3.4 µM
Huh7-CMV-Luc cells
  CC50: > 98 µM
[2]
  EC50: > 98 µM
MT-4 cells
  CC50: > 90 µM

## C[C@H](NP(=O)(OC[C@H]1O[C@@H](n2ccc(=O)[nH]c2=O)C2(CC2)[C@@H]1O)Oc1ccccc1)C(=O)OCc1ccccc1 (some centres unmarked) [Compound 9]
[1]; Hepatitis C virus, Huh-7, 72 h
  EC50: 2.9 µM
[3]
  CC50 at 3 days: > 98 µM
[2]; [5]
  EC50: > 85 µM
[4]
  CC50: > 98 µM

## CCOC(=O)[C@H](C)NP(=O)(OC[C@H]1O[C@@H](n2ccc(=O)[nH]c2=O)C2(CC2)[C@@H]1O)Oc1ccc(Cl)cc1 (some centres unmarked) [Compound 8]
[1]; Hepatitis C virus, Huh-7, 72 h
  EC50: 5.9 µM
[3]
  CC50 at 3 days: > 98 µM
[2]; [5]
  EC50: > 98 µM
[4]
  CC50: > 98 µM

## Cc1ccc(C(C)C)c(OP(=O)(N[C@@H](C)C(=O)OCc2ccccc2)OC[C@H]2O[C@@H](n3ccc(=O)[nH]c3=O)C3(CC3)[C@@H]2O)c1 (some centres unmarked) [Compound 22]
[1]; Hepatitis C virus, Huh-7, 72 h
  EC50: 9.2 µM
[3]
  CC50 at 3 days: > 32 µM
[2]; [5]
  EC50: 1.65 µM
[4]
  CC50: 2.1 µM

## C[C@H](NP(=O)(OC[C@H]1O[C@@H](n2ccc(=O)[nH]c2=O)C2(CC2)[C@@H]1O)Oc1ccc(Cl)cc1)C(=O)OCc1ccccc1 (single isomer, unassigned) [Compound 7a]
[1]
  EC50: 10.9 µM
[3]
  CC50 at 3 days: 58.4 µM
[2]; [5]
  EC50: > 60 µM
[4]
  CC50: > 50 µM

## C[C@H](NP(=O)(OC[C@H]1O[C@@H](n2ccc(=O)[nH]c2=O)C2(CC2)[C@@H]1O)Oc1ccc2[nH]ccc2c1)C(=O)OCc1ccccc1 (some centres unmarked) [Compound 20]
[1]; Hepatitis C virus, Huh-7, 72 h
  EC50: 7.6 µM
[3]
  CC50 at 3 days: > 32 µM
[2]; [5]
  EC50: > 98 µM
[4]
  CC50: > 98 µM

## CCOC(=O)C1(NP(=O)(OC[C@H]2O[C@@H](n3ccc(=O)[nH]c3=O)C3(CC3)[C@@H]2O)Oc2ccccc2)CC1 (some centres unmarked) [Compound 29]
[1]; Hepatitis C virus, Huh-7, 72 h
  EC50: > 98 µM
[3]
  CC50 at 3 days: > 98 µM
[2]; [5]
  EC50: > 98 µM
[4]
  CC50: > 98 µM

## CC[C@H](NP(=O)(OC[C@H]1O[C@@H](n2ccc(=O)[nH]c2=O)C2(CC2)[C@@H]1O)Oc1ccccc1)C(=O)OCc1ccccc1 (some centres unmarked) [Compound 21]
[1]; Hepatitis C virus, Huh-7, 72 h
  EC50: 7.8 µM
[3]
  CC50 at 3 days: > 98 µM
[2]; [5]
  EC50: > 98 µM
[4]
  CC50: > 80 µM
